Laboratory results taken from patent US6447801B1, “Anti-parasitic action of N,N-diethyl-m-toluamide (deet) and formulations that prolong its activity in the skin” (priority 1997, dated 2002).

Assays:
[1] = test system: cercariae of S. mansoni; assay: Effect of DEET applied to the skin after exposure to S. mansoni infection in mice; assay type: in vivo, Schistosoma mansoni
Text: For in vivo animal experiments, male mice of the CD1 strain, weighing approximately 18-20 grams, purchased from Charles River Laboratories (Wilmington, Mass.) were used. The use of animals in these experiments were in compliance with the Animal Welfare Act and other Federal statues and regulations relating to animals as stated in the National Institute of Health publication: Guide for the Care and Use of Laboratory Animals. Mice were infected individually with schistosome cercariae via either tail skin or via shaved abdominal skin. For infection via tail skin, the mouse was restrained in a cage and the tail was dipped for 60 minutes in a tube containing 250-300 ^35S-labeled cercariae suspended in 10 ml of distilled water at room temperature. […]
To determine skin penetration and worm establishment, whole tail skin or the area of abdominal skin that was exposed to the cercariae as described above and the lungs were removed from each mouse on day seven after infection and processed for compressed organ autoradiography techniques as described previously (Li J W et al., Parasitology International 46: 55-65 (1997)). […] Following autoradiographic development, the dark spots (which represent reduced silver foci on film) were counted and percent worm establishment was calculated (number of spots/total number of cercariae used for infection X 100). […]

[2] = test system: Amblyoma americanum; assay: Tick attachment to rabbit ear, Amblyoma americanum; assay type: in vivo
Experimental: To determine the effect of DEET on tick attachment and feeding we used two species of ticks Amblyoma americanum and Dermacetor variabilis purchased from University of Oklahoma. Ticks were allowed to feed on the ears of male New Zealand white rabbits purchased from Charles River. For feeding, five ticks were introduced into a 60 μm sieve cell well (Fisher Scientific) which was attached to the ear of the rabbit with nail glue. Ticks were observed every 30 minutes for the first eight hours to assess skin attachment and feeding behavior. Tick attachment was defined as the minimum time required for 3 of the 5 ticks to attach to the ear. […] The observation was continued for 72 hours for both species of ticks. Separate rabbits were used for each species and for each treatment. […] All the ticks in this study were active until attachment.
In this series of experiments, the protective effect(s) of different concentrations of DEET and Lipodeet on the attachment of nymphs and adults of two species of ticks, A. americanum and D. variabilis, to the rabbit ear was evaluated. Experiments were set up wherein different concentrations (20% or 40% of DEET or Lipodeet were applied (0.2 ml of the samples to 10 cm^2 surface area), onto the dorsal side of the ear lobes of a rabbit. After allowing the preparation to dry for 30 min., sieve cups (Fisher Scientific, 1″ inner diameter) were then attached to the ear lobes using nail glue. Ten nymphs or five adult ticks were then introduced into the sieve cups every 24 hrs through a small slit made on the sieve membrane. Attachment of ticks to the skin was monitored every 24 hrs. for up to 72 hrs. after introduction of the ticks.
More than 60% of ticks used in our experiments were dead after contact with Lipodeet. Although a well-aerated sieve cup was used (1″ inner diameter), we initially thought that the tick mortality may be due to possible DEET vapor trapped within the sieve cup. Therefore, we designed experiments where one half of the surface area of skin within the sieve cup was treated with 40% Lipodeet and the other half was left untreated. Five adults ticks of A. americanum were then introduced into the sieve cups every 24 hrs. After 72 hrs., the sieve cups were removed.

[3] = Disposition of 14C-DEET and 14C-Lipodeet after skin application (skin, blood, urine, bedding radioactivity)
Experimental: In this series of experiments, 11.472 mg of ^14C-DEET of ^14C-Lipodeet (in 100 μl) was applied to 5 cm^2 area of the mice abdominal skin. At different time points (15 min, 30 min, 60 min, 2 hrs., 4 hrs., 24 hrs., 48 hrs. and 72 hrs.) after application, the whole area of skin where the lipodeet had been applied was collected, underlying tissue removed and the radioactivity measured in a Beckman β-counter. Samples of blood and urine were also collected at these time points from each mouse to measure the radioactivity (n=10 for each time point). […] In this study, we made observations only up to 72 hrs. […] There are two possibilities, (1) substantial quantities of both DEET and Lipodeet are absorbed systemically through the skin within 24 hrs., or (2) both the chemicals are lost in the bedding due to direct contact of the applied area to the bedding materials. The first hypothesis was tested by measuring ^14C levels in the blood and urine in these animals.

[4] = test system: Aedes aegypti; assay: Laboratory evaluation as mosquito repellant on human volunteers; assay type: in vivo; settings: 10% or 30%; human forearm
Experimental: However, one of the major uses of DEET is against mosquitoes. Therefore, we wanted to test whether Lipodeet prolongs the mosquito repellency activity of DEET. These experiments were conducted on human volunteers at the Illinois Natural History Survey Center for Economic Entomology, University of Illinois Urbana-Champaign. […] The test solutions were applied to 8.5 cm area (1.76 μl/cm^2) on the forearm of the subjects and the duration of repellency against the mosquitoes was evaluated over a period of 24 hrs. No treatment was applied to the other forearm and this remained as controls. Paper cups (1 pint) screened at one end with a fine mesh and closed at the other end was used as test cages in this study. […] Five minutes after application of the samples were treated as time 0. After the exposure, mosquitoes were removed and the number that were blooded were counted. Values were expressed as follows: [formula]

[5] = test system: insects; settings: normally; cited from earlier work

Question: Which protection ([1]; 40% DEET applied 4 hrs or more after infection) does the source give for `CCN(CC)C(=O)c1cccc(C)c1` [DEET, N,N-diethyl-m-toluamide] here?
Answer: no protection

Question: And the “effectiveness in preventing the infection” value ([1]; 40% DEET applied within 30 min after exposure to cercariae)?
Answer: 100%

Question: What about the “initial time with no tick attachment” value ([2]; 10% DEET on rabbit ear, normal rabbits 20 hours) of the same compound?
Answer: 22.0 h

Question: What about the adult ticks attached ([2]; 20%, adults, by 48 hrs (2/10)) of the same compound?
Answer: 20%

Question: And the adult ticks attached ([2]; 20%, adults, by 72 hrs (6/15))?
Answer: 40%

Question: What about the “prevention of adult tick attachment” value ([2]; 20%, adults, up to 24 hrs) of the same compound?
Answer: prevented tick attachment

Question: And the “reduction of attachment of A. americanum nymphs to rabbit ear” value ([2]; 20%, from 24 to 72 hrs, untreated 40% attached)?
Answer: 50%

Question: What about the “site of tick attachment, half of the skin in the sieve cup treated” value ([2]; 40%, adult A. americanum, after 72 hrs) of the same compound?
Answer: ticks were seen attached to both treated and untreated surfaces

Question: And the adult ticks attached ([2]; 40%, adults, at 48 hrs (1/10))?
Answer: 10%

Question: What about the adult ticks attached ([2]; 40%, adults, by 72 hrs (3/15)) of the same compound?
Answer: 20%

Question: And the “ticks attached to the skin” value ([2]; 40%, nymphs, by 48 hrs)?
Answer: 20%

Question: What about the “prevention of tick attachment” value ([2]; 40%, nymphs, up to 24 hrs) of the same compound?
Answer: completely prevented tick attachment to the skin

Question: And the “amount in the superficial layers of the skin” value ([3]; 11.472 mg on 5 cm^2, by 24 hrs)?
Answer: nearly all of the DEET applied to the skin has been cleared from the superficial layers

Question: What about the “lost from the skin” value ([3]; during 4 to 24 hrs after application) of the same compound?
Answer: 100%

Question: What about the “duration of mosquito repellent effect” value [4] of the same compound?
Answer: completely lost by six hours

Question: What about the “duration of effect under field condition” value [5] of the same compound?
Answer: eight hours
